{
  "source": "patent US20230146455A1",
  "about": "“TREATMENT OF INFLAMMATORY DISEASES WITH PEPTIDES AND PHARMACEUTICAL COMPOSITIONS” (Yuyu Pharma, Inc., priority 2020, published 2023)",
  "test_system": "cytokine and chemokine release in human peripheral blood mononuclear cells (hPBMCs)",
  "assay": "Luminex multiplex, 30 cytokines and chemokines, LPS stimulated hPBMCs, main study (Example 8, Study 1), whole panel",
  "type": "cell-based",
  "conditions": "for LPS-induced cytokine/chemokine levels, whole panel (in words): LPS 5 ug/mL 24 hrs, up to 500 nM",
  "procedure": "Human PBMCs frozen in a cryopreserve was thawed, washed with Hank's Balanced Salt Solution containing 10% Fetal bovine serum, and seeded onto a 24-well plate at a density of 1×10^6 cells/well with culture RPMI media containing 10% Fetal bovine serum in growth media in a 24 well plate for 12, 24, and 48 hrs and maintained at 37° C. in an atmosphere of 95% air and 5% CO2.\nHuman PBMCs were pretreated with YY-101, YDE-011, YDE-043 or reference compound; Xiidra® at various concentration (ranging from […] to 500 nM) for 2 h before stimulation. An equal volume of 0.5% DMSO was used as a vehicle control. Then, the cells were treated with LPS at 5 ug/ml, which was selected based on the pilot study. The supernatants from treated cells were harvested at 24 h and placed in a 96 well for Luminex cytokine & chemokine profiling using a Luminex 200 multiplex assay (Luminex; R&D system, USA).\nThe main study arm with triplicate wells per group in a 24-well plate: • 1. Blank • 2. PBMC: 0.5% DMSO • 3. PBMC+LPS (5 ug/ml) • 4. PBMC+YY-101 500 nM • 5. PBMC+YY-101 50 nM • 6. PBMC+YY-101 5 nM • 7. PBMC+YY-101 0.5 nM • 8. PBMC+LPS (5 ug/ml)+Xiidra® 500 nM • 9. PBMC+LPS (5 ug/ml)+Xiidra® 50 nM • 10. PBMC+LPS (5 ug/ml)+Xiidra® 5 nM • 11. PBMC+LPS (5 ug/ml)+Xiidra® 0.5 nM • 12. PBMC+LPS (5 ug/ml)+Xiidra® 0.05 nM • 13. PBMC+LPS (5 ug/ml)+Xiidra® 0.005 nM • 14. PBMC+LPS (5 ug/ml)+YY-101 500 nM • 15. PBMC+LPS (5 ug/ml)+YY-101 50 nM • 16. PBMC+LPS (5 ug/ml)+YY-101 5 nM • 17. PBMC+LPS (5 ug/ml)+YY-101 0.5 nM • 18. PBMC+LPS (5 ug/ml)+YY-101 0.05 nM • 19. PBMC+LPS (5 ug/ml)+YY-101 0.005 nM • 20. PBMC+LPS (5 ug/ml)+YDE-011 500 nM • 21. PBMC+LPS (5 ug/ml)+YDE-011 50 nM • 22. PBMC+LPS (5 ug/ml)+YDE-011 5 nM • 23. PBMC+LPS (5 ug/ml)+YDE-011 0.5 nM • 24. PBMC+LPS (5 ug/ml)+YDE-011 0.05 nM • 25. PBMC+LPS (5 ug/ml)+YDE-011 0.005 nM • 26. PBMC+LPS (5 ug/ml)+YDE-043 500 nM • 27. PBMC+LPS (5 ug/ml)+YDE-043 50 nM • 28. PBMC+LPS (5 ug/ml)+YDE-043 5 nM • 29. PBMC+LPS (5 ug/ml)+YDE-043 0.5 nM • 30. PBMC+LPS (5 ug/ml)+YDE-043 0.05 nM • 31. PBMC+LPS (5 ug/ml)+YDE-043 0.005 nM\nMultiplex assay was used to measure 30 cytokines and chemokines. The 1:200 diluted cell supernatant and serial dilution of the standard were dispensed into a 96 well plate at 50 ul/well. Then, the pre-mixed cocktail of antibody-coated magnetic beads was dispensed at 50 ul/well and incubated at room temperature for 2 h in a horizontal orbital microplate shaker at 800±500 rpm. The beads were washed using a magnetic device to prevent loss. The biotin-antibody was dispensed in 50 ul of each well and incubated at room temperature for 1 h in a shaker at 800±500 rpm. […] The data was calculated with a standard five-parameter logistic nonlinear regression analysis of the data (xPonent software 4.2, USA). […]",
  "note": "Entries after “also recorded” stand apart in the source; their conditions may differ. Where a SMILES comes first, the peptide text is derived from it. [ ]: non-standard residue; d: D form. Hyp = O=C(O)[C@@H]1C[C@@H](O)CN1",
  "data": [
    {"smiles": "CC(C)C[C@H](NC(=O)CNC(=O)[C@H](CC(C)C)NC(=O)[C@H](CCC(N)=O)NC(=O)CNC(=O)[C@@H]1C[C@@H](O)CN1)C(=O)N[C@@H](C)C(=O)NCC(=O)N1CCC[C@H]1C(=O)N[C@@H](CCCCN)C(=O)O", "note": "[YDE-011] (H-[Hyp]GQLGLAGPK-OH)", "values": [
      {"measurement": "LPS-induced cytokine/chemokine levels, whole panel (in words)", "value": "potently and significantly reduced pro-inflammatory cytokine/chemokine production"}
    ]},
    {"smiles": "CC(C)C[C@H](NC(=O)[C@H](CCC(N)=O)NC(=O)CNC(=O)[C@@H]1C[C@@H](O)CN1)C(=O)NCC(=O)O", "note": "[YDE-043] (H-[Hyp]GQLG-OH; N-terminus and C-terminus assumed)", "values": [
      {"measurement": "LPS-induced cytokine/chemokine levels, whole panel (in words)", "value": "more effectively lowered cytokine and chemokine production; also recorded: potently and significantly reduced pro-inflammatory cytokine/chemokine production"}
    ]},
    {"smiles": "CC(C)C[C@H](NC(=O)CNC(=O)[C@H](CC(=O)O)NC(=O)[C@H](CCC(N)=O)NC(=O)CNC(=O)[C@@H]1C[C@@H](O)CN1)C(=O)N[C@@H](C)C(=O)NCC(=O)N1CCC[C@H]1C(=O)N[C@@H](CCCCN)C(=O)O", "note": "[YY-101] (H-[Hyp]GQDGLAGPK-OH; N-terminus and C-terminus assumed)", "values": [
      {"measurement": "LPS-induced cytokine/chemokine levels, whole panel (in words)", "value": "potently and significantly reduced pro-inflammatory cytokine/chemokine production"},
      {"measurement": "basal levels of cytokine production (in words)", "setting": "no LPS", "value": "didn't affect the basal levels of cytokine production"}
    ]}
  ]
}
